Experimental data published in PubChem BioAssay (NCI).
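All cell lines were grown in 96-well plates and treated with compound for 48 hours. TGI: concentration producing complete growth inhibition.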

Columns and labels:
Assay in all cases: NCI tumour cell line growth inhibition, 48 h
SNB-19 CNS = tested on: SNB-19 CNS
IGROV1 ovarian = tested on: IGROV1 ovarian
RPMI-8226 leukemia = tested on: RPMI-8226 leukemia
UACC-62 melanoma = tested on: UACC-62 melanoma
NCI/ADR-RES ovarian = tested on: NCI/ADR-RES ovarian
SW-620 colon = tested on: SW-620 colon
MCF7 breast = tested on: MCF7 breast
CAKI-1 renal = tested on: CAKI-1 renal
SK-OV-3 ovarian = tested on: SK-OV-3 ovarian
LOX IMVI melanoma = tested on: LOX IMVI melanoma
OVCAR-5 ovarian = tested on: OVCAR-5 ovarian
NCI-H522 lung = tested on: NCI-H522 lung
A498 renal = tested on: A498 renal
COLO 205 colon = tested on: COLO 205 colon
786-0 renal = tested on: 786-0 renal
ACHN renal = tested on: ACHN renal
KM12 colon = tested on: KM12 colon
DU-145 prostate = tested on: DU-145 prostate
PC-3 prostate = tested on: PC-3 prostate
HOP-92 NSCLC = tested on: HOP-92 NSCLC
NCI-H23 lung = tested on: NCI-H23 lung
A549 NSCLC = tested on: A549 NSCLC
MOLT-4 leukemia = tested on: MOLT-4 leukemia
SN12C renal = tested on: SN12C renal
T-47D breast = tested on: T-47D breast
OVCAR-8 ovarian = tested on: OVCAR-8 ovarian
NCI-H460 lung = tested on: NCI-H460 lung
MDA-MB-435 = tested on: MDA-MB-435
K-562 leukemia = tested on: K-562 leukemia
MDA-MB-231 breast = tested on: MDA-MB-231 breast
SF-268 CNS = tested on: SF-268 CNS
HOP-62 NSCLC = tested on: HOP-62 NSCLC
RXF 393 renal = tested on: RXF 393 renal
EKVX NSCLC = tested on: EKVX NSCLC
SF-539 CNS = tested on: SF-539 CNS
SK-MEL-28 melanoma = tested on: SK-MEL-28 melanoma
HT29 colon = tested on: HT29 colon
HCT-116 colon = tested on: HCT-116 colon
HCC-2998 colon = tested on: HCC-2998 colon
SF-295 CNS = tested on: SF-295 CNS
SNB-75 CNS = tested on: SNB-75 CNS
M14 melanoma = tested on: M14 melanoma
MALME-3M melanoma = tested on: MALME-3M melanoma
SK-MEL-2 melanoma = tested on: SK-MEL-2 melanoma
HCT-15 colon = tested on: HCT-15 colon
HS 578T breast = tested on: HS 578T breast
OVCAR-4 ovarian = tested on: OVCAR-4 ovarian
MDA-N = tested on: MDA-N
U251 CNS = tested on: U251 CNS
TK-10 renal = tested on: TK-10 renal
HL-60(TB) leukemia = tested on: HL-60(TB) leukemia
SK-MEL-5 melanoma = tested on: SK-MEL-5 melanoma
UO-31 renal = tested on: UO-31 renal
UACC-257 melanoma = tested on: UACC-257 melanoma
OVCAR-3 ovarian = tested on: OVCAR-3 ovarian
BT-549 breast = tested on: BT-549 breast
NCI-H226 lung = tested on: NCI-H226 lung

## C(=N\Nc1nnc2c(n1)[nH]c1ccccc12)/c1cccnc1
SNB-19 CNS
  TGI: > 100 µM
IGROV1 ovarian
  TGI: > 100 µM
RPMI-8226 leukemia
  TGI: > 100 µM
UACC-62 melanoma
  TGI: > 100 µM
NCI/ADR-RES ovarian
  TGI: > 100 µM
SW-620 colon
  TGI: > 100 µM
MCF7 breast
  TGI: > 100 µM
CAKI-1 renal
  TGI: > 100 µM
SK-OV-3 ovarian
  TGI: > 100 µM
LOX IMVI melanoma
  TGI: > 100 µM
OVCAR-5 ovarian
  TGI: > 100 µM
NCI-H522 lung
  TGI: > 100 µM
A498 renal
  TGI: > 100 µM
COLO 205 colon
  TGI: > 100 µM
786-0 renal
  TGI: > 100 µM
ACHN renal
  TGI: > 100 µM
KM12 colon
  TGI: > 100 µM
DU-145 prostate
  TGI: > 100 µM
PC-3 prostate
  TGI: > 100 µM
HOP-92 NSCLC
  TGI: > 100 µM
NCI-H23 lung
  TGI: > 100 µM
A549 NSCLC
  TGI: > 100 µM
MOLT-4 leukemia
  TGI: > 100 µM
SN12C renal
  TGI: > 100 µM
T-47D breast
  TGI: > 100 µM
OVCAR-8 ovarian
  TGI: > 100 µM
NCI-H460 lung
  TGI: > 100 µM
MDA-MB-435
  TGI: > 100 µM
K-562 leukemia
  TGI: > 100 µM
MDA-MB-231 breast
  TGI: > 100 µM
SF-268 CNS
  TGI: > 100 µM
HOP-62 NSCLC
  TGI: > 100 µM
RXF 393 renal
  TGI: > 100 µM
EKVX NSCLC
  TGI: > 100 µM
SF-539 CNS
  TGI: > 100 µM
SK-MEL-28 melanoma
  TGI: > 100 µM
HT29 colon
  TGI: > 100 µM
HCT-116 colon
  TGI: > 100 µM
HCC-2998 colon
  TGI: > 100 µM
SF-295 CNS
  TGI: > 100 µM
SNB-75 CNS
  TGI: > 100 µM
M14 melanoma
  TGI: 46.2 µM
MALME-3M melanoma
  TGI: > 100 µM
SK-MEL-2 melanoma
  TGI: > 100 µM
HCT-15 colon
  TGI: > 100 µM
HS 578T breast
  TGI: > 100 µM
OVCAR-4 ovarian
  TGI: > 100 µM
MDA-N
  TGI: > 100 µM
U251 CNS
  TGI: > 100 µM
TK-10 renal
  TGI: > 100 µM
HL-60(TB) leukemia
  TGI: > 100 µM
SK-MEL-5 melanoma
  TGI: > 100 µM
UO-31 renal
  TGI: > 100 µM
UACC-257 melanoma
  TGI: > 100 µM
OVCAR-3 ovarian
  TGI: > 100 µM
BT-549 breast
  TGI: > 100 µM
NCI-H226 lung
  TGI: > 100 µM
